Measured values published in patent US12642875B2, “Liposomal nanocarrier delivery system for targeting active CD44 molecule, preparation method therefor, and uses thereof” (Beijing Inno Medicine Co., Ltd., priority 2018, dated 2026).

What was measured:
[1] = tested on: ApoE−/− mouse model of arterial vulnerable plaque; experiment: In vivo therapeutic effect of atorvastatin delivery systems on arterial vulnerable plaques (Experimental Example 4, carotid MRI); design: species or system mice; conditions: once every other day, 5 treatments, control progressed by 34.87%
Protocol: (§1) Except for the control group of vulnerable plaque model, the treatment group was treated once every other day for a total of 5 treatments. For animals in each group, carotid MRI scans were performed before and after treatment to detect plaque and lumen area, and the percentage of plaque progression was calculated. Percentage of plaque progression=(plaque area after treatment−plaque area before treatment)/lumen area.

[2] = tested on: ApoE−/− mouse model of arterial vulnerable plaque; experiment: In vivo radioisotopic tracing of vulnerable plaque (Experimental Example 8); design: species or system mice; conditions: tail vein, tracer 2 mSv/kg, imaging 2 hours after administration
Protocol: • (1) A normal saline solution of free rosuvastatin was prepared, and the liposome nano delivery systems loaded with radioisotopic tracer and therapeutic agent was prepared by the method described in the above Example 11. • (2) Establishment of ApoE−/− mouse model of arterial vulnerable plaque according to Experimental Example 4. • (3) Trace of vulnerable plaque in experimental animals:
The experimental animals were randomly divided into the following groups, 6 mice in each group: • Free F-FDG group: the dosage of F-FDG was 2 mSv/kg body weight; • LP1-(F-FDG)-OPN group: the dosage of F-FDG was 2 mSv/kg body weight; • LP1-(99mTc)-OPN group: the dosage of 99mTc was 2 mSv/kg body weight; • LP1-(I-131)-OPN group: the dosage of 1-131 was 2 mSv/kg body weight.
Animals in each experimental group were injected with the corresponding tracer through the tail vein, and radioisotopic imaging was performed before administration and 2 hours after administration to observe the identification of atherosclerotic vulnerable plaque in each group.

[3] = oral, clinical practice; cited from earlier work
[4] = tested on: ApoE−/− mouse model of arterial vulnerable plaque; experiment: In vivo therapeutic effect of LP2-(AuNP/R)-OPN on arterial vulnerable plaques (Experimental Example 5, carotid MRI); design: species or system mice; conditions: once every other day, 5 treatments, control progressed by 31.23%
Protocol: • (1) A normal saline solution of free rosuvastatin was prepared, and the liposome nano delivery systems loaded with CT tracer and therapeutic agent was prepared by the method described in the above Example 7. • (2) Establishment of ApoE−/− mouse model of arterial vulnerable plaque according to Experimental Example 4. • (3) Trace of vulnerable plaque in experimental animals:
as §1

[5] = tested on: ApoE−/− mouse model of arterial vulnerable plaque; experiment: In vivo therapeutic effect of rosuvastatin delivery systems on arterial vulnerable plaques (Experimental Example 3, carotid MRI); design: species or system mice; conditions: once every other day, 5 treatments, control progressed by 36.23%
Protocol: • (1) A normal saline solution of free rosuvastatin was prepared, and the liposome nanocarrier delivery systems loaded with therapeutic agent were prepared by the method described in the above Example 1-3. • (2) Establishment of ApoE−/− mouse model of arterial vulnerable plaque:
SPF-grade ApoE−/− mice (42 mice, 5-6 weeks old, weight 20±1 g) were taken as experimental animals. The mice were fed with an adaptive high-fat diet (fat 10% (w/w), cholesterol 2% (w/w), sodium cholate 0.5% (w/w), and the rest being normal feed for mice) for 4 weeks, and then anaesthetized via intraperitoneal injection of 1% sodium pentobarbital (prepared by adding […] of sodium pentobarbital to 100 ml of normal saline) at a dose of 40 mg/kg. Then, the mice were fixed on the surgical plate in the supine position, disinfected around the neck with 75% (v/v) alcohol, the neck skin was cut longitudinally, and the anterior cervical gland was bluntly separated, and the beating left common carotid artery can be observed on the left side of the trachea. […]
Except for the control group of vulnerable plaque model, the treatment group was treated once every other day for a total of 5 treatments. For animals in each group, carotid MRI scans were performed before and after treatment to detect plaque and lumen area, and the percentage of plaque progression was calculated. […]

[6] = biological target: T1, CD44 on the surface of endothelial cells at arterial vulnerable plaques (Mus musculus, UniProt P15379); experiment: Binding force integration of amino fluorescein labelled ligand/antibody, flow cytometry MFI, endothelial cells; design: species or system mice; conditions: normal cells set to 1; labelled ligand/antibody 10 mg/ml, 30 minutes, 37° C.
T1 construct: from tissue; host or cells: endothelial cells from arterial vulnerable plaques of model mice
T1 sequence (P15379 23-778): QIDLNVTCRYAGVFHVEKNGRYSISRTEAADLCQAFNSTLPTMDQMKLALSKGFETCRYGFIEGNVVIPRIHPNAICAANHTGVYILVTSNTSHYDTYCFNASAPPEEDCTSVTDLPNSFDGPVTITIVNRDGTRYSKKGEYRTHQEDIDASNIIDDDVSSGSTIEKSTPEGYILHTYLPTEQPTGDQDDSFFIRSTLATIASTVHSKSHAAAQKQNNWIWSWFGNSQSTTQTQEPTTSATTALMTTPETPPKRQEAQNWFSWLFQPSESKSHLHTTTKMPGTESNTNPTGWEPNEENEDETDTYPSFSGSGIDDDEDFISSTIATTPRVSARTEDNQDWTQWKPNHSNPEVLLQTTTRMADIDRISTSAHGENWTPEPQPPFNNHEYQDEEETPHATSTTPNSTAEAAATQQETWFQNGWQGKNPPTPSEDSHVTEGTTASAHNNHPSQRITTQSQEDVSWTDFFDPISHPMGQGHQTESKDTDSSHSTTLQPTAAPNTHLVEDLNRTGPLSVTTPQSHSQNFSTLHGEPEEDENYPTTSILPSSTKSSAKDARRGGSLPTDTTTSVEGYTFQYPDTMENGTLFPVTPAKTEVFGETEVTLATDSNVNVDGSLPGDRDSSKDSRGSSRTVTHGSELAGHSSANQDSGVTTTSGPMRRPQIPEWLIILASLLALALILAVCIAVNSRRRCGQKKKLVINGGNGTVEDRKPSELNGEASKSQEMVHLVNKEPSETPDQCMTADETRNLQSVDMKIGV
Protocol: Endothelial cells at normal arterial vessel walls and endothelial cells at arterial vulnerable plaques of model mice were taken, and the ligand/antibody labeled with amino fluorescein at a concentration of 10 mg/ml was added, the sample was cultured in Dulberic modified Eagle's medium (DMEM) (containing calf serum with a volume fraction of 10%, 100 U/ml penicillin, 100 U/ml streptomycin) at 37° C., in 5% CO2 incubator. After 30 minutes, the mean fluorescence intensity (MFI) was determined by flow cytometry (CytoFLEX, Beckman Coulter, U.S.A.), and the binding force integration of FL-ligand/antibody on the surface of both cells was calculated (the binding force of CD44 of endothelial cells of normal arterial vessel walls to ligand/antibody is set to 1).

[7] = biological target: T2, CD44 on the surface of macrophages inside arterial vulnerable plaques (Mus musculus, UniProt P15379); experiment: Binding force integration of amino fluorescein labelled ligand/antibody, flow cytometry MFI, macrophages; design: species or system mice; conditions: macrophages outside the plaque set to 1; labelled ligand/antibody 10 mg/ml, 30 minutes, 37° C.
T2 construct: from tissue; host or cells: macrophages from inside arterial vulnerable plaques of model mice
T2 sequence (P15379 23-778): T1 sequence (P15379 23-778)
Protocol: Intraperitoneal macrophages and macrophages inside arterial vulnerable plaques of model mice were taken, and the ligand/antibody labeled with amino fluorescein at a concentration of 10 mg/ml was added, the sample was cultured in DMEM (containing calf serum with a volume fraction of 10%, 100 U/ml penicillin, 100 U/ml streptomycin) at 37° C., in 5% CO2 incubator.

[8] = intragastric, 10 mg rosuvastatin per kg

## CC(C)c1c(C(=O)Nc2ccccc2)c(-c2ccccc2)c(-c2ccc(F)cc2)n1CC[C@@H](O)C[C@@H](O)CC(=O)O [atorvastatin]
[1]; intragastric, 20 mg atorvastatin per kg
  percentage of plaque progression: 33.21%
[1]; intravenous, 1.2 mg atorvastatin per kg
  percentage of plaque progression: 32.98%

## OC[C@H]1OC(O)[C@H]([18F])[C@@H](O)[C@@H]1O (stereo partly drawn) [free F-FDG, fluorine 18 (18F)-labeled fludeoxyglucose]
[2]
  in vivo tracing effect on arterial vulnerable plaques (radioisotopic imaging): doesn't show any tracing effect

## CC(C)c1nc(N(C)S(C)(=O)=O)nc(-c2ccc(F)cc2)c1/C=C/[C@@H](O)C[C@@H](O)CC(=O)O [rosuvastatin]
[3]
  bioavailability when administered orally: about 20%
[4]; [8]
  percentage of plaque progression: 30.9%
[4]; intravenous, 0.67 mg rosuvastatin per kg
  percentage of plaque progression: 25.34%
[5]; [8]
  percentage of plaque progression: 33.9%
[5]; intravenous, 0.66 mg rosuvastatin per kg
  percentage of plaque progression: 32.46%

## collagen
[6]
  binding force integration of CD44 on the surface of endothelial cells at vulnerable plaques, relative to endothelial cells of normal arterial vessel walls: 21 times
[7]
  binding force integration of CD44 on the surface of macrophages at vulnerable plaques, relative to macrophages outside the plaque: 38 times

## fibronectin
[6]
  binding force integration of CD44 on the surface of endothelial cells at vulnerable plaques, relative to endothelial cells of normal arterial vessel walls: 18 times
[7]
  binding force integration of CD44 on the surface of macrophages at vulnerable plaques, relative to macrophages outside the plaque: 35 times

## hyaluronic acid [HA]
[6]
  binding force integration of CD44 on the surface of endothelial cells at vulnerable plaques, relative to endothelial cells of normal arterial vessel walls: approximately 24 times
[7]
  binding force integration of CD44 on the surface of macrophages at vulnerable plaques, relative to macrophages outside the plaque: approximately 40 times

## laminin
[6]
  binding force integration of CD44 on the surface of endothelial cells at vulnerable plaques, relative to endothelial cells of normal arterial vessel walls: 16 times
[7]
  binding force integration of CD44 on the surface of macrophages at vulnerable plaques, relative to macrophages outside the plaque: 37 times

## osteopontin: natural ligand for CD44
[6]
  binding force integration of CD44 on the surface of endothelial cells at vulnerable plaques, relative to endothelial cells of normal arterial vessel walls: 17 times
[7]
  binding force integration of CD44 on the surface of macrophages at vulnerable plaques, relative to macrophages outside the plaque: 33 times
